Data on 12 compounds can be found in US10604514B2, “6-(5-membered heteroaryl)isoquinolin-3-yl carboxamides and preparation and use thereof” (Samumed, LLC, priority 2017, dated 2020).

Where two headings read alike, the source gives them in different places. Where only a bound is given, the exact number is not on record here.

For assay [1], the system named is Wnt activity (Sp5-Luc reporter in SW480 colon carcinoma cells). The experiment in a line: Wnt activity screening assay (Sp5-Luc reporter gene assay). Type of assay: cell-based, human. In short, it runs like this:
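SW480 cells stably carrying an Sp5 promoter (eight TCF/LEF sites)-firefly luciferase reporter were plated in DMEM with 1% FBS and treated with a 10-point, 1:3 dilution series from 10 μM (0.1% DMSO) for 36 to 48 h at 37° C. Luminescence was normalized to DMSO controls, and EC50 came from four-parameter nonlinear regression.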

For assay [2], the target named is GSK3β kinase (Homo sapiens (Human), UniProt P49841). The assay can be described thus: GSK3β kinase assay (Ser/Thr 09 peptide Z-lyte, FRET).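 Note: Coumarin/fluorescein emission ratio converted to percent phosphorylation against unphosphorylated (0%) and phosphorylated (100%) controls, 1 h compound incubation at room temperature, 11-point threefold dilutions from 10 µM, run in duplicate.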 The format is biochemical. To be noted: method text calls the value IC50.
The subject of assay [3] is LL29 cells (primary human fibroblasts derived from IPF patients), α-smooth muscle actin. The experiment in a line: Inhibition of fibrotic process: αSMA in TGF-β1-treated primary human fibroblasts from IPF patients (LL29 cells). Type of assay: cell-based. The settings on record: Homo sapiens, Fibroblast; for EC50: 96 h, % αSMA-positive LL29 cells, TGF-β1 20 ng/mL, 4 days; for inhibition at 10 µM: read-out: percent inhibition at 10 μM. In outline: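 IPF-patient lung fibroblasts (LL29) were stimulated with TGF-β1 (20 ng/mL) in 1% FBS medium with compound (11-point 1:2 series, 0.1% DMSO) for 4 days at 37 °C. Fixed cells were immunostained for αSMA and imaged, excluding SYTOX-positive dead cells. The % αSMA-positive cells was normalized to TGF-β1/DMSO control wells.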

Assay [4] deals with DYRK1A kinase (Homo sapiens (Human), UniProt Q13627). The experiment in a line: DYRK1A kinase assay (Ser/Thr 18 peptide Z-lyte, FRET).
Assay [5] concerns IL-6. The assay can be described thus: IL-6 inhibition in LPS-stimulated human peripheral blood mononuclear cells (HTRF). Type of assay: cell-based. The settings on record: Homo sapiens, PBMC; for inhibition at 10 µM: read-out: percent value in parentheses below EC50 >10; for EC50: IL-6, LPS-stimulated huPBMCs, HTRF. In outline:
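Fresh human PBMCs (5000 cells/well, 1% FBS RPMI) preincubated with compound (10-point 1:3 series from 10 μM, 0.25% DMSO) 2 h at 37 °C, then stimulated with 50 ng/mL E. coli LPS for 22 h. IL-6 by HTRF 665/620 ratio; DMSO-normalized, EC50 from 4-parameter fit.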

Assay [6] has as its system Tau phosphorylation at Ser396 (pSer396), SH-SY5Y cells. The assay can be described thus: Tau phosphorylation at Ser396 (pSer396) in SH-SY5Y cells, ELISA/western blot.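 Note: cell lysates probed for reduced Tau pSer396 via ELISA (colorimetric) or western blot (chemiluminescence), both with one shared pSer396 antibody, EC50 for lowering phosphorylation.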 To be noted: Homo sapiens. Type of assay: cell-based, human.
The subject of assay [7] is SW480 colon carcinoma cells. The assay can be described thus: Cell viability assay (CellTiter-Glo) in SW480 cells.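 Note: SW480 cells stably carrying an Sp5-luciferase TCF/LEF reporter, luminescent ATP signal as viability measure, DMSO-treated cells as control.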 Type of assay: cell-based, human.
Where [8] appears, read: Homo sapiens, SW480, read-out: percent inhibition at 10 μM.
[9] abbreviates: Homo sapiens; Sp5-Luc reporter, SW480 cells, 36 to 48 hours.
[10] abbreviates: DYRK1A kinase, method text calls the value IC50.
The mark [11] stands for this setting: Homo sapiens, 96 h; cell viability, SW480 cells, four days, CellTiter-Glo.
The mark [12] stands for this setting: SH-SY5Y cells, overnight (16-18 h), read-out: pSer396 Tau EC50.
The mark [13] stands for this setting: Homo sapiens, SW480; read-out: percent inhibition at 10 μM.

Chain of GSK3β kinase (P49841 whole entry): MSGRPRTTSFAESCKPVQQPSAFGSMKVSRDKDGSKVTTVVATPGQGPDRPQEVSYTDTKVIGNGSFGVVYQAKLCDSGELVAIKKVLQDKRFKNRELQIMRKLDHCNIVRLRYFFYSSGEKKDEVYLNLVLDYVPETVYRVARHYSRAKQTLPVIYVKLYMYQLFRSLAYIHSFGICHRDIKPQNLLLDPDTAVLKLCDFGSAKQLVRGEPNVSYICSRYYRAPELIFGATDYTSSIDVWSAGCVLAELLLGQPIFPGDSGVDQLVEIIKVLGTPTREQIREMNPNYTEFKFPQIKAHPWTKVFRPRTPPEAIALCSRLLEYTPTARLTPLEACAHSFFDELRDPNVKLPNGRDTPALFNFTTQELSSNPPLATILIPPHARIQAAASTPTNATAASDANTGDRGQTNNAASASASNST

Take `Cc1nnc(-c2ccc3cnc(NC(=O)N4[C@@H]5CC[C@H]4C[C@@H](N)C5)cc3c2)s1` [Compound 193, (1R,5S)-3-endo-Amino-N-(6-(5-methyl-1,3,4-thiadiazol-2-yl)isoquinolin-3-yl)-8-azabicyclo[3.2.1]octane-8-carboxamide]: the inhibition at 10 µM in assay [1] (setting [8]) was found to be 8.4%; in assay [3] it was 6.5%; in assay [5] it was 6.5%; in assay [7] (setting [8]), 12.8%. Also, the EC50 was more than 10 µM in assay [1] (setting [9]); 0.33 µM in assay [2]; more than 10 µM in assay [3]; 0.033 µM in assay [4] (setting [10]); more than 10 µM in assay [5]; more than 10 µM in assay [6] (SH-SY5Y, read-out: pSer396 Tau EC50 (μM)). For the same compound, the EC50 in assay [7] (setting [11]) is more than 10 µM.
For `Cc1ncc(-c2ccc3cnc(NC(=O)[C@H]4CC[C@H](NCCC(F)(F)F)CC4)cc3c2)o1` [Compound 148, trans-N-(6-(2-Methyloxazol-5-yl)isoquinolin-3-yl)-4-((3,3,3-trifluoropropyl)amino)cyclohexane-1-carboxamide], the 50% effective concentration (EC50) was 3.44 µM in assay [1] (setting [9]); 0.257 µM in assay [2]; 0.286 µM in assay [3]; 0.014 µM in assay [4] (setting [10]); 0.414 µM in assay [5]; 0.599 µM in assay [6] (setting [12]). Moreover, in assay [7] (setting [11]), the half-maximal effective concentration (EC50) worked out at 1.2 µM.
`Cn1cc(-c2cc(F)c3cnc(NC(=O)[C@H]4CC[C@H](N(C)C)CC4)cc3c2)nn1` [Compound 10, trans-4-(Dimethylamino)-N-(8-fluoro-6-(1-methyl-1H-1,2,3-triazol-4-yl)isoquinolin-3-yl)cyclohexane-1-carboxamide]: the concentration for a half-maximal effect (EC50) was 0.923 µM in assay [1] (setting [9]); 0.018 µM in assay [2]; 0.208 µM in assay [3]; 0.004 µM in assay [4] (setting [10]); 9.22 µM in assay [5]; 0.119 µM in assay [6] (setting [12]). The compound also displayed a 50% effective concentration (EC50) in assay [7] (setting [11]) of 0.719 µM.
For `Cc1ncc(-c2cc(F)c3cnc(NC(=O)[C@H]4CC[C@H](N(C)C)CC4)cc3c2)o1` [Compound 17, trans-4-(Dimethylamino)-N-(8-fluoro-6-(2-methyloxazol-5-yl)isoquinolin-3-yl)cyclohexane-1-carboxamide], the 50% effective concentration (EC50) in assay [1] (setting [9]) was found to be 4.1 µM; in assay [2], 0.188 µM; in assay [3], 1.43 µM; in assay [4] (setting [10]), 0.018 µM; in assay [5], 3.44 µM; in assay [6] (setting [12]) it was 0.743 µM. In assay [7] (setting [11]), this compound displayed an EC50 of 6.91 µM.
`Cc1nnc(-c2ccc3cnc(NC(=O)N4CCC(NC(CF)CF)CC4)cc3c2)s1` [Compound 121, 4-((1,3-Difluoropropan-2-yl)amino)-N-(6-(5-methyl-1,3,4-thiadiazol-2-yl)isoquinolin-3-yl)piperidine-1-carboxamide]: the EC50 was 8.13 µM in assay [1] (setting [9]); 0.082 µM in assay [2]; more than 10 µM in assay [3]; 0.035 µM in assay [4] (setting [10]); more than 10 µM in assay [5]; 0.953 µM in assay [6] (setting [12]). In addition, in assay [7] (setting [11]), the 50% effective concentration (EC50) was more than 10 µM. The inhibition at 10 µM was found to be 10.4% in assay [3], 5.4% in assay [5] and 36.5% in assay [7] (setting [13]).
Regarding `Cc1nnc(-c2ccc3cnc(NC(=O)N4CCC(NCC(F)F)CC4)cc3c2)s1` [Compound 168, 4-((2,2-Difluoroethyl)amino)-N-(6-(5-methyl-1,3,4-thiadiazol-2-yl)isoquinolin-3-yl)piperidine-1-carboxamide], the inhibition at 10 µM in assay [1] (setting [13]) is 42.2%; in assay [5], 14.2%; in assay [7] (setting [13]), 19.4%. The half-maximal effective concentration (EC50) was more than 10 µM in assay [1] (setting [9]); 0.02 µM in assay [2]; 1.29 µM in assay [3]; 0.004 µM in assay [4] (setting [10]); more than 10 µM in assay [5]; 0.578 µM in assay [6] (setting [12]). This compound also gave a concentration for a half-maximal effect (EC50) in assay [7] (setting [11]) of more than 10 µM.
Regarding `Cc1nnc(-c2ccc3cnc(NC(=O)C4CCN(C)CC4)cc3c2)s1` [Compound 46, 1-Methyl-N-(6-(5-methyl-1,3,4-thiadiazol-2-yl)isoquinolin-3-yl)piperidine-4-carboxamide], the 50% effective concentration (EC50) in assay [1] (setting [9]) is 0.73 µM; in assay [2], 0.023 µM; in assay [3], 0.64 µM; in assay [4], 0.006 µM; in assay [5], 3.76 µM; in assay [6] (setting [12]) it was 0.091 µM. Also, in assay [7] (setting [11]), a half-maximal effect (EC50) was put at 1.04 µM.
As to `[2H]c1c([2H])c([2H])c(C(=O)Nc2cc3cc(-c4cncn4C)ccc3cn2)c(Cl)c1[2H]` [Compound 82], the inhibition at 10 µM was 29.6% in assay [1] (setting [13]), 31.2% in assay [3] and 47.6% in assay [5]. Besides, the half-maximal effective concentration (EC50) was more than 10 µM in assay [1] (setting [9]); 1.51 µM in assay [2]; more than 10 µM in assay [3]; 0.003 µM in assay [4]; more than 10 µM in assay [5]; 5.9 µM in assay [6] (setting [12]). The compound further yielded an EC50 in assay [7] (setting [11]) of 3.31 µM.
Take `Cc1nnc(-c2ccc3cnc(NC(=O)N4CCC(N(C)C)CC4)cc3c2)s1` [Compound 31, 4-(Dimethylamino)-N-(6-(5-methyl-1,3,4-thiadiazol-2-yl)isoquinolin-3-yl) piperidine-1-carboxamide]: the EC50 in assay [1] (setting [9]) was 2.06 µM; in assay [2], 0.117 µM; in assay [3], 3.71 µM; in assay [4] (setting [10]), 0.024 µM; in assay [5] it was more than 10 µM; in assay [6] (setting [12]), 0.386 µM. A half-maximal response in assay [7] (setting [11]) (EC50) required 3.8 µM. In addition, in assay [5], the inhibition at 10 µM turned out to be 19.8%.
As to `CC(C)N1CCN(C(=O)Nc2cc3cc(-c4cnn(C)c4)ccc3cn2)CC1` [Compound 65, 4-isopropyl-N-(6-(1-methyl-1H-pyrazol-4-yl)isoquinolin-3-yl)piperazine-1-carboxamide], the concentration for a half-maximal effect (EC50) in assay [1] (setting [9]) was 0.725 µM; in assay [2], 2.84 µM; in assay [3] it was 2.35 µM; in assay [4] (setting [10]) it was 0.07 µM; in assay [5] it was more than 10 µM; in assay [6] (setting [12]), more than 10 µM. The same compound came in with an EC50 in assay [7] (setting [11]) of more than 10 µM. The figures for the inhibition at 10 µM in assay [5] and in assay [7] (setting [13]) were 4.8% and 7.3%, respectively.
Turning to `[2H]C([2H])([2H])C(N[C@H]1CCN(C(=O)Nc2cc3cc(-c4nnc(C)s4)ccc3cn2)C[C@@H]1F)C([2H])([2H])[2H]` [Compound 139, (3S,4S)-3-Fluoro-N-(6-(5-methyl-1,3,4-thiadiazol-2-yl)isoquinolin-3-yl)-4-((propan-2-yl-1,1,1,3,3,3-d6)amino)piperidine-1-carboxamide], the EC50 in assay [1] (setting [9]) was 2.81 µM; in assay [2], 0.033 µM; in assay [3], 2.35 µM; in assay [4], 0.022 µM; in assay [5], more than 10 µM; in assay [6] (setting [12]), 1.4 µM. The same compound came in with an EC50 in assay [7] (setting [11]) of 7.35 µM. Also, the inhibition at 10 µM in assay [5] is 6.6%.
For `[2H]C1([2H])N(c2cc(C(=O)Nc3cc4cc(-c5cnc(C)n5C)ccc4cn3)ccn2)C([2H])([2H])C([2H])([2H])C([2H])([2H])C1([2H])[2H]` [Compound 72, N-(6-(1,2-Dimethyl-1H-imidazol-5-yl)isoquinolin-3-yl)-2-(piperidin-1-yl-d10)isonicotinamide], the EC50 is 3.31 µM in assay [1] (setting [9]); more than 10 µM in assay [2]; 0.937 µM in assay [3]; 0.003 µM in assay [4]; 1.58 µM in assay [5]; 2.6 µM in assay [6] (setting [12]). Further, a half-maximal effect in assay [7] (setting [11]) (EC50) was put at 0.489 µM.
